# Assay results: patent US20090105235A1, “INSECTICIDAL COMPOSITIONS WITH IMPROVED EFFECT” (Bayer CropScience AG, priority 2005, published 2009)
# Read-outs that look alike come from different tables or passages of the source.
# Tests used:
# Type in all cases: in vivo
# Aphis gossypii [1] = assay: Aphis gossypii test (Example A), cotton, spraying upper side of leaf; conditions: active compound 24 g/ha, spray volume 600 l/ha
# Description: To produce a suitable preparation of active compound, 1 part by weight of active compound is mixed with the stated amounts of solvent and emulsifier, and the concentrate is diluted with water to the desired concentration. If addition of ammonium salts, phosphonium salts or penetrants is required, the appropriate amount is added by pipette after dilution of the respective finished preparation solution.
# Single-leaf cotton plants (Gossypium hirsutum) which are heavily infested by the cotton aphid (Aphis gossypii) are treated by spraying of the upper side of the leaf (spray volume 600 l/ha) with the active compound preparation at the desired concentration.
# (§1) After the desired period of time, the kill in % is determined. 100% means that all animals have been killed; 0% means that none of the animals have been killed.
# Myzus persicae [2] = assay: Myzus persicae test (Example D), bell pepper plants sprayed; conditions: for pest or weed control at 0.16 ppm / pest or weed control at 0.8 ppm / pest or weed control at 4 ppm: Myzus persicae, 144 h, read-out: Kill rate after 6 days, Without penetrant and AS; for Kill rate after 6 days, With penetrant and AS: with penetrant and AS (in each case 1000 ppm)
# Description: (§2) To produce a suitable preparation of active compound, 1 part by weight of active compound is mixed with the stated amounts of solvent and emulsifier, and the concentrate is diluted with emulsifier-containing water to the desired concentration. If addition of ammonium salts or ammonium salts and penetrant is required, the appropriate amount is added by pipette after dilution of the respective finished preparation solution (in each case 1000 ppm).
# Bell pepper plants (Capsicum annuum) which are heavily infested by the green peach aphid (Myzus persicaei) are treated by spraying with the active compound preparation at the desired concentration.
# as §1
# Aphis gossypii [3] = assay: Aphis gossypii test (Example E), cotton leaves sprayed; conditions: for Kill rate after 6 days, With penetrant and AS: with penetrant and AS (in each case 1000 ppm)
# Description: as §2
# Cotton leaves (Gossypium hirsutum) which are heavily infested by the cotton aphid (Aphis gossypii) are sprayed with an active compound preparation at the desired concentration.
# After the desired period of time, the kill in % is determined. 100% means that all aphids have been killed; 0% means that none of the aphids have been killed.
# Myzus persicae [4] = assay: Myzus persicae test (Example F), bell pepper, spraying underside of leaf; conditions: active compound 0.48 g/ha
# Description: as §2, with “with” for “with emulsifier-containing”
# Single-leaf bell pepper plants (Capsicum annuum) which are heavily infested by the green peach aphid (Myzus persicaei) are treated by spraying of the underside of the leaf with the active compound preparation at the desired concentration.
# as §1
# Myzus persicae [5] = assay: Myzus persicae test (Example G), bell pepper, spraying upper side of leaf; conditions: active compound 2.4 g/ha
# Description: as §2, with “with” for “with emulsifier-containing”
# Single-leaf bell pepper plants (Capsicum annuum) which are heavily infested by the green peach aphid (Myzus persicaei) are treated by spraying of the upper side of the leaf with the active compound preparation at the desired concentration.
# as §1
# Aphis gossypii [6] = assay: Aphis gossypii test (APHIGO contact) (Example H), cotton, spraying underside of leaf; conditions: active compound 0.192 g/ha
# Description: as §2, with “with” for “with emulsifier-containing”
# Single-leaf cotton plants (Gossypium hirsutum) which are heavily infested by the cotton aphid (Aphis gossypii) are treated by spraying of the underside of the leaf with the active compound preparation at the desired concentration.
# as §1
# Aphis gossypii [7] = assay: Aphis gossypii test (APHIGO translaminar) (Example I), cotton, spraying upper side of leaf; conditions: active compound 0.192 g/ha
# Description: as §2, with “with” for “with emulsifier-containing”
# Single-leaf cotton plants (Gossypium hirsutum) which are heavily infested by the cotton aphid (Aphis gossypii) are treated by spraying of the upper side of the leaf with the active compound preparation at the desired concentration.
# as §1
# [8] = active compound 0.16 ppm, 6 days
# [9] = Aphis gossypii, 144 h, read-out: Kill rate after 6 days, Without penetrant and AS
# [10] = active compound 0.8 ppm, 6 days
# [11] = with penetrant and AS (in each case 1000 ppm)
# [12] = active compound 0.16 ppm, without penetrant and AS, 6 days
# [13] = Aphis gossypii, 144 h, active compound 0.16 ppm, without penetrant and AS, 6 days, read-out: Kill rate after 6 days, Without penetrant and AS
# [14] = active compound 0.8 ppm, without penetrant and AS, 6 days
# [15] = Aphis gossypii, 144 h, active compound 0.8 ppm, without penetrant and AS, 6 days, read-out: Kill rate after 6 days, Without penetrant and AS
smiles,measurement,setting,value
CON/C(=N\[N+](=O)[O-])NCc1cnc(Cl)s1 [(Ib-3)],"Kill rate after 3 days, With AS 1 g/l",Aphis gossypii [1]; with ammonium sulphate 1 g/l,99%
same,"Kill rate after 3 days, Without AS",Aphis gossypii [1]; without ammonium sulphate,77%
"CN1COCN(Cc2cnc(Cl)s2)/C1=N/[N+](=O)[O-] [Ia-1, thiamethoxam, reference compound]",pest or weed control at 0.16 ppm,Myzus persicae [2],10%
same,"Kill rate after 6 days, With penetrant and AS",Myzus persicae [2]; [8],85%
same,pest or weed control at 0.16 ppm,Aphis gossypii [3]; [9],0%
same,"Kill rate after 6 days, With penetrant and AS",Aphis gossypii [3]; [8],40%
"CN/C(=N\[N+](=O)[O-])NCc1cnc(Cl)s1 [Ia-2, clothianidin, reference compound]",pest or weed control at 0.8 ppm,Myzus persicae [2],60%
same,"Kill rate after 6 days, With penetrant and AS",Myzus persicae [2]; [10],100%
"N#C/N=C1\SCCN1Cc1ccc(Cl)nc1 [Ia-3, thiacloprid, reference compound]",pest or weed control at 0.16 ppm,Myzus persicae [2],0%
same,"Kill rate after 6 days, With penetrant and AS",Myzus persicae [2]; [8],50%
same,pest or weed control at 0.16 ppm,Aphis gossypii [3]; [9],0%
same,"Kill rate after 6 days, With penetrant and AS",Aphis gossypii [3]; [8],70%
"CN/C(=N\[N+](=O)[O-])NCC1CCOC1 (stereo not drawn) [Ia-4, dinotefuran, reference compound]",pest or weed control at 4 ppm,Myzus persicae [2],10%
same,"Kill rate after 6 days, With penetrant and AS","Myzus persicae [2]; active compound 4 ppm, 6 days",80%
same,pest or weed control at 0.8 ppm,Aphis gossypii [3]; [9],0%
same,"Kill rate after 6 days, With penetrant and AS",Aphis gossypii [3]; [10],35%
"C/C(=N\C#N)N(C)Cc1ccc(Cl)nc1 [Ia-5, acetamiprid, reference compound]",pest or weed control at 0.16 ppm,Myzus persicae [2],0%
same,"Kill rate after 6 days, With penetrant and AS",Myzus persicae [2]; [8],90%
"CCN(Cc1ccc(Cl)nc1)/C(=C/[N+](=O)[O-])NC [Ia-6, nitenpyram, reference compound]",pest or weed control at 0.8 ppm,Myzus persicae [2],10%
same,"Kill rate after 6 days, With penetrant and AS",Myzus persicae [2]; [10],90%
same,pest or weed control at 0.8 ppm,Aphis gossypii [3]; [9],25%
same,"Kill rate after 6 days, With penetrant and AS",Aphis gossypii [3]; [10],99%
"O=[N+]([O-])/N=C1\NCCN1Cc1ccc(Cl)nc1 [Ia-7, imidacloprid, reference compound]",pest or weed control at 4 ppm,Myzus persicae [2],40%
same,"Kill rate after 6 days, With penetrant and AS","Myzus persicae [2]; active compound 4 ppm, 6 days",100%
same,pest or weed control at 4 ppm,Aphis gossypii [3]; [9],15%
same,"Kill rate after 6 days, With penetrant and AS","Aphis gossypii [3]; active compound 4 ppm, 6 days",95%
"O=[N+]([O-])/N=C1\NCCN1Cc1cnc(Cl)s1 [Ia-8, imidaclothiz, reference compound]",pest or weed control at 0.8 ppm,Aphis gossypii [3]; [9],65%
same,"Kill rate after 6 days, With penetrant and AS",Aphis gossypii [3]; [10],95%
"CN1CN(C)/C(=N\[N+](=O)[O-])N(Cc2cnc(Cl)s2)C1 [Ia-9, AKD-1022]",pest or weed control at 0.8 ppm,Myzus persicae [2],70%
same,"Kill rate after 6 days, With penetrant and AS",Myzus persicae [2]; [10],100%
same,pest or weed control at 0.8 ppm,Aphis gossypii [3]; [9],80%
same,"Kill rate after 6 days, With penetrant and AS",Aphis gossypii [3]; [10],100%
C/N=C(\C(=C/N(C)C)[N+](=O)[O-])N(C)Cc1ccc(Cl)nc1 [Ic-1],pest or weed control at 0.8 ppm,Myzus persicae [2],0%
same,"Kill rate after 6 days, With penetrant and AS",Myzus persicae [2]; [10],95%
same,pest or weed control at 0.8 ppm,Aphis gossypii [3]; [9],5%
same,"Kill rate after 6 days, With penetrant and AS",Aphis gossypii [3]; [10],60%
same,"Kill rate after 7 days, With penetrant and AS",Myzus persicae [4]; [11],67%
same,"Kill rate after 7 days, Without penetrant and AS",Myzus persicae [4]; without penetrant and AS,0%
same,"Kill rate after 7 days, With penetrant and AS",Myzus persicae [5]; [11],53%
same,"Kill rate after 7 days, Without penetrant and AS",Myzus persicae [5]; without penetrant and AS,0%
same,"Kill rate after 7 days, With penetrant and AS",Aphis gossypii [6]; [11],70%
same,"Kill rate after 7 days, Without penetrant and AS",Aphis gossypii [6]; without penetrant and AS,0%
CN/C(=C\[N+](=O)[O-])C(C)c1ccc(Cl)nc1 (stereo not drawn) [Id-1],pest or weed control at 0.8 ppm,Myzus persicae [2],0%
same,"Kill rate after 6 days, With penetrant and AS",Myzus persicae [2]; [10],90%
same,pest or weed control at 0.8 ppm,Aphis gossypii [3]; [9],0%
same,"Kill rate after 6 days, With penetrant and AS",Aphis gossypii [3]; [10],55%
O=C/C(=C1/NCCN1Cc1ccc(Cl)nc1)[N+](=O)[O-] [Ie-2],pest or weed control at 0.16 ppm,Myzus persicae [2],10%
same,"Kill rate after 6 days, With penetrant and AS",Myzus persicae [2]; [8],95%
same,pest or weed control at 0.16 ppm,Aphis gossypii [3]; [9],10%
same,"Kill rate after 6 days, With penetrant and AS",Aphis gossypii [3]; [8],95%
CN(Cc1ccc(Cl)nc1)C1=CC(=O)OC1 [If-1],pest or weed control at 0.16 ppm,Myzus persicae [2]; [12],20%
same,"Kill rate after 6 days, With penetrant and AS",Myzus persicae [2]; [8],85%
same,pest or weed control at 0.16 ppm,Aphis gossypii [3]; [13],30%
same,"Kill rate after 6 days, With penetrant and AS",Aphis gossypii [3]; [8],75%
same,"Kill rate after 7 days, With penetrant and AS",Aphis gossypii [7]; [11],70%
same,"Kill rate after 7 days, Without penetrant and AS",Aphis gossypii [7]; without penetrant and AS,0%
O=C1C=C(NCc2ccc(Cl)nc2)CO1 [If-2],pest or weed control at 0.16 ppm,Myzus persicae [2]; [12],0%
same,"Kill rate after 6 days, With penetrant and AS",Myzus persicae [2]; [8],50%
same,pest or weed control at 0.16 ppm,Aphis gossypii [3]; [13],0%
same,"Kill rate after 6 days, With penetrant and AS",Aphis gossypii [3]; [8],50%
C=CCN(CCN/C(=C/[N+](=O)[O-])SC)Cc1ccc(Cl)nc1 [Ih-1],pest or weed control at 0.8 ppm,Myzus persicae [2]; [14],20%
same,"Kill rate after 6 days, With penetrant and AS",Myzus persicae [2]; [10],98%
same,pest or weed control at 0.8 ppm,Aphis gossypii [3]; [15],5%
same,"Kill rate after 6 days, With penetrant and AS",Aphis gossypii [3]; [10],95%
C#CCN(CCN/C(=C/[N+](=O)[O-])OC)Cc1ccc(Cl)nc1 [Ih-2],pest or weed control at 0.8 ppm,Myzus persicae [2]; [14],80%
same,"Kill rate after 6 days, With penetrant and AS",Myzus persicae [2]; [10],98%
same,pest or weed control at 0.8 ppm,Aphis gossypii [3]; [15],65%
same,"Kill rate after 6 days, With penetrant and AS",Aphis gossypii [3]; [10],90%
C#CCN(CCN/C(=N/[N+](=O)[O-])OC)Cc1ccc(Cl)nc1 [Ih-3],pest or weed control at 0.8 ppm,Aphis gossypii [3]; [15],15%
same,"Kill rate after 6 days, With penetrant and AS",Aphis gossypii [3]; [10],55%
CS/C(=N\[N+](=O)[O-])NCCN(Cc1ccc(Cl)nc1)CC1CC1 [Ih-4],pest or weed control at 0.8 ppm,Aphis gossypii [3]; [15],15%
same,"Kill rate after 6 days, With penetrant and AS",Aphis gossypii [3]; [10],45%
